Test results from patent US20050004134A1, “Thiazole derivative and pharmaceutical use thereof” (priority 2001, published 2005).

Row | melting point [°C] | SMILES
1 | 126 to 129 | CC(C)n1nc(-c2sc(NC(=O)c3ccccc3)nc2-c2ccccc2)ccc1=O [Example 2, N-[5-(1-isopropyl-6-oxo-1,6-dihydro-3-pyridazinyl)-4-phenyl-1,3-thiazol-2-yl]-benzamide]
2 | 202 to 203.5 | CC(C)n1nc(-c2sc(NC(=O)c3ccccc3)nc2-c2ccc(F)cc2)ccc1=O [Example 83, N-[4-(4-Fluorophenyl)-5-(1-isopropyl-6-oxo-1,6-dihydro-3-pyridazinyl)-1,3-thiazol-2-yl]-benzamide]
3 | 190 to 191 | CC(C)n1nc(-c2sc(C(=O)NCc3ccccn3)nc2-c2ccccc2F)ccc1=O [Example 207, 4-(2-Fluorophenyl)-5-(1-isopropyl-6-oxo-1,6-dihydro-3-pyridazinyl)-N-(2-pyridinylmethyl)-1,3-thiazole-2-carboxamide]
4 | 164.5 to 166.5 | CONC(=O)c1nc(-c2ccc(F)cc2)c(-c2ccc(=O)n(C(C)C)n2)s1 [Example 238, 4-(4-fluorophenyl)-5-(1-isopropyl-6-oxo-1,6-dihydro-3-pyridazinyl)-N-methoxy-1,3-thiazole-2-carboxamide]
5 | 173 to 174 | CC(C)n1nc(-c2sc(NC(=O)c3cccc(Cl)c3)nc2-c2ccccc2)ccc1=O [Example 35, 3-Chloro-N-[5-(1-isopropyl-6-oxo-1,6-dihydro-3-pyridazinyl)-4-phenyl-1,3-thiazol-2-yl]benzamide]
6 | 202 to 204 | CC(=O)Nc1nc(-c2ccccc2)c(-c2ccc(=O)n(C(C)C)n2)s1 [Example 6, N-[5-(1-isopropyl-6-oxo-1,6-dihydro-3-pyridazinyl)-4-phenyl-1,3-thiazol-2-yl]-acetamide]
7 | 247.5 to 249 | CC(C)n1nc(-c2sc(C(=O)NCC(N)=O)nc2-c2ccccc2)ccc1=O [Example 222, N-(2-amino-2-oxoethyl)-5-(1-isopropyl-6-oxo-1,6-dihydro-3-pyridazinyl)-4-phenyl-1,3-thiazole-2-carboxamide]
8 | 220 to 221 | CC(C)n1nc(-c2sc(NC(=O)c3ccccc3Cl)nc2-c2ccccc2)ccc1=O [Example 46, 2-Chloro-N-[5-(1-isopropyl-6-oxo-1,6-dihydro-3-pyridazinyl)-4-phenyl-1,3-thiazol-2-yl]benzamide]
9 | 172.5 to 173.5 | O=C(NCc1ccccn1)c1nc(-c2ccccc2)c(-c2ccc(=O)n(Cc3ccccc3)n2)s1 [Example 205, 5-(1-Benzyl-6-oxo-1,6-dihydro-3-pyridazinyl)-4-phenyl-N-(2-pyridinylmethyl)-1,3-thiazole-2-carboxamide]
10 | 133.5 to 135 | CC(C)n1nc(-c2sc(C(=O)NC3CC3)nc2-c2ccccc2F)ccc1=O [Example 196, N-cyclopropyl-4-(2-fluorophenyl)-5-(1-isopropyl-6-oxo-1,6-dihydro-3-pyridazinyl)-1,3-thiazole-2-carboxamide]
11 | 225 to 226 | CC(C)n1nc(-c2sc(NC(=O)c3ccc(F)cc3)nc2-c2ccccc2)ccc1=O [Example 48, 4-fluoro-N-[5-(1-isopropyl-6-oxo-1,6-dihydro-3-pyridazinyl)-4-phenyl-1,3-thiazol-2-yl]benzamide]
12 | 157 to 158 | CC(C)n1nc(-c2sc(NCc3ccccc3)nc2-c2ccccc2)ccc1=O [Example 65, 6-[2-(Benzylamino)-4-phenyl-1,3-thiazol-5-yl]-2-isopropyl-3 (2H)-pyridazinone]
13 | 213 to 215 | CC(C)n1nc(-c2sc(C(N)=O)nc2-c2ccccc2F)ccc1=O [Example 163, 4-(2-Fluorophenyl)-5-(1-isopropyl-6-oxo-1,6-dihydro-3-pyridazinyl)-1,3-thiazole-2-carboxamide]
14 | 223 to 224 | CC(C)n1nc(-c2sc(NC(=O)c3cccc4ccccc34)nc2-c2ccccc2)ccc1=O [Example 31, N-[5-(1-Isopropyl-6-oxo-1,6-dihydro-3-pyridazinyl)-4-phenyl-1,3-thiazol-2-yl]-1-naphthamide]
15 | 103.5 to 105.5 | CC(C)NC(=O)c1nc(-c2cccc(F)c2)c(-c2ccc(=O)n(C(C)C)n2)s1 [Example 185, 4-(3-fluorophenyl)-N-isopropyl-5-(1-isopropyl-6-oxo-1,6-dihydro-3-pyridazinyl)-1,3-thiazole-2-carboxamide]
16 | 144 to 147 | CC(C)n1nc(-c2sc(C(=O)NCCc3ccccn3)nc2-c2ccccc2)ccc1=O [Example 234, 5-(1-Isopropyl-6-oxo-1,6-dihydro-3-pyridazinyl)-4-phenyl-N-[2-(2-pyridinyl)ethyl]-1,3-thiazole-2-carboxamide]
17 | 155 to 157 | CC(C)n1nc(-c2sc(C(=O)NCc3ccncc3)nc2-c2ccc(F)cc2)ccc1=O [Example 236, 4-(4-Fluorophenyl)-5-(1-isopropyl-6-oxo-1,6-dihydro-3-pyridazinyl)-N-(4-pyridinylmethyl)-1,3-thiazole-2-carboxamide]
18 | 121 to 122 | CCCNC(=O)c1nc(-c2ccccc2)c(-c2ccc(=O)n(CCC)n2)s1 [Example 172, 5-(6-oxo-1-propyl-1,6-dihydro-3-pyridazinyl)-4-phenyl-N-propyl-1,3-thiazole-2-carboxamide]
19 | 196.5 to 197.5 | CC(C)n1nc(-c2sc(C(=O)NCCN3CCOCC3)nc2-c2ccccc2)ccc1=O [Example 224, 5-(1-Isopropyl-6-oxo-1,6-dihydro-3-pyridazinyl)-N-[2-(4-morpholinyl)-ethyl]-4-phenyl-1,3-thiazole-2-carboxamide]
20 | 127 to 128 | CC(C)n1nc(-c2sc(C(=O)NC3CC3)nc2-c2ccccc2)ccc1=O [Example 192, N-cyclopropyl-5-(1-isopropyl-6-oxo-1,6-dihydro-3-pyridazinyl)-4-phenyl-1,3-thiazole-2-carboxamide]

Further lines, the compound ahead of its results:

Row | SMILES | melting point [°C]
21 | CC(=O)Cn1nc(-c2sc(N)nc2-c2ccccc2)ccc1=O [Example 90, 6-(2-Amino-4-phenyl-1,3-thiazol-5-yl)-2-(2-oxopropyl)-3(2H)-pyridazinone] | 216 to 219
22 | COCCCNCC(=O)Nc1nc(-c2ccccc2)c(-c2ccc(=O)n(C(C)C)n2)s1.Cl | > 250
23 | CC(C)NC(=O)c1nc(-c2ccccc2)c(-c2ccc(=O)[nH]n2)s1 [Example 176, N-isopropyl-5-(6-oxo-1,6-dihydro-3-pyridazinyl)-4-phenyl-1,3-thiazole-2-carboxamide] | > 250
24 | CCCn1nc(-c2sc(C(=O)NC3CC3)nc2-c2ccccc2)ccc1=O [Example 191, N-cyclopropyl-5-(6-oxo-1-propyl-1,6-dihydro-3-pyridazinyl)-4-phenyl-1,3-thiazole-2-carboxamide] | 146 to 147
25 | C=CCn1nc([SH]2C=C(c3ccccc3)N=C2C(=O)NC2CC2)ccc1=O (stereo not drawn) [Example 193, S-(1-allyl-6-oxo-1,6-dihydro-3-pyridazinyl)-N-cyclopropyl-4-phenyl-1,3-thiazole-2-carboxamide] | 167.5 to 168.5
26 | CC(C)n1nc(-c2sc(NC(=O)c3ccc(CN4CCN(C)CC4)cc3)nc2-c2ccccc2)ccc1=O [Example 97, N-(5-(1-Isopropyl-6-oxo-1,6-dihydro-3-pyridazinyl)-4-phenyl-1,3-thiazol-2-yl]-4-[(4-methyl-1-piperazinyl)methyl]benzamide] | 224 to 227
27 | CCCn1nc(-c2sc(C(N)=O)nc2-c2ccccc2)ccc1=O [Example 167, 5-(6-oxo-1-propyl-1,6-dihydro-3-pyridazinyl)-4-phenyl-1,3-thiazole-2-carboxamide] | 201 to 202
28 | COCCn1nc(-c2sc(N)nc2-c2ccccc2)ccc1=O [Example 87, 6-(2-Amino-4-phenyl-1,3-thiazol-5-yl)-2-(2-methoxyethyl)-3(2H)-pyridazinone] | 208 to 209.5
29 | CC(C)n1nc(-c2sc(NC(=O)CNCCCN3CCCC3=O)nc2-c2ccccc2)ccc1=O.Cl | 207 to 209
30 | CC(C)n1nc(-c2sc(NCCN3CCCCC3)nc2-c2ccccc2)ccc1=O [Example 74, 2-Isopropyl-6-(4-phenyl-2-{[2-(1-piperidinyl)ethyl]amino}-1,3-thiazol-5-yl)-3(2H)-pyridazinone] | 165 to 166
31 | CCOCCNCc1ccc(C(=O)Nc2nc(-c3ccccc3)c(-c3ccc(=O)n(C(C)C)n3)s2)cc1 [Example 145, 4-{[(2-Ethoxyethyl)amino]methyl}-N-[5-(1-isopropyl-6-oxo-1,6-dihydro-3-pyridazinyl)-4-phenyl-1,3-thiazol-2-yl]benzamide] | 153 to 154
32 | CC(C)n1nc(-c2sc(NC(=O)CNCCN3CCCCC3)nc2-c2ccccc2)ccc1=O.Cl.Cl | > 250
33 | CC(C)n1nc(-c2sc(NC(=O)C3CCCCC3)nc2-c2ccccc2)ccc1=O [Example 7, N-[5-(1-Isopropyl-6-oxo-1,6-dihydro-3-pyridazinyl)-4-phenyl-1,3-thiazol-2-yl]cyclohexanecarboxamide] | 234 to 236
34 | Cn1nc(-c2sc(C(N)=O)nc2-c2ccccc2)ccc1=O [Example 159, 5-(1-methyl-6-oxo-1,6-dihydro-3-pyridazinyl)-4-phenyl-1,3-thiazole-2-carboxamide] | 231 to 232
35 | CC(C)n1nc(-c2sc(NC(C)(C)C)nc2-c2ccccc2)ccc1=O [Example 61, 6-[2-(tert-Butylamino)-4-phenyl-1,3-thiazol-5-yl]-2-isopropyl-3(2H)-pyridazinone] | 189 to 190
36 | CC(C)n1nc(-c2sc(NC(=O)c3cc(C(F)(F)F)cc(C(F)(F)F)c3)nc2-c2ccccc2)ccc1=O [Example 44, N-[5-(1-Isopropyl-6-oxo-1,6-dihydro-3-pyridazinyl)-4-phenyl-1,3-thiazol-2-yl]-3,5-bis(trifluoromethyl)benzamide] | 207 to 208
37 | CC(C)n1nc(-c2sc(NC(=O)CN3CCCC3)nc2-c2ccccc2)ccc1=O.Cl | > 250
38 | CC(C)n1nc(-c2sc(NCCCN3CCOCC3)nc2-c2ccccc2)ccc1=O [Example 68, 2-I sopropyl-6-(2-{[3-(4-morpholinyl)propyl]amino}-4-phenyl-1,3-thiazol-5-yl)-3(2H)-pyridazinone] | 194 to 195
39 | CC(C)n1nc(-c2sc(NC(=O)CNCCCN3CCOCC3)nc2-c2ccccc2)ccc1=O.Cl.Cl | 211 to 213
